PubChem BioAssay (NCI)
Several values for one entry are separate records, joined by “and”; a condition that tells them apart may be missing. Identical values can stand only once.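 Step 1: Grow cells in 96-well plates. Step 2: Expose to compound for 48 hours at 5 concentrations. Step 3: Interpolate endpoints linearly; if unreached, use highest concentration. Here, GI50 denotes the concentration required for 50% inhibition of growth. TGI marks complete inhibition of growth.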

How the values were obtained:
Assay in all cases: growth of human tumour cells (NCI), 48 h
CCRF-CEM leukemia = system: CCRF-CEM leukemia
SF-295 CNS = system: SF-295 CNS
SK-MEL-5 melanoma = system: SK-MEL-5 melanoma
UACC-257 melanoma = system: UACC-257 melanoma
COLO 205 colon = system: COLO 205 colon
MALME-3M melanoma = system: MALME-3M melanoma
HCC-2998 colon = system: HCC-2998 colon
MOLT-4 leukemia = system: MOLT-4 leukemia
SK-MEL-2 melanoma = system: SK-MEL-2 melanoma
A549 NSCLC = system: A549 NSCLC

| Compound | GI50 (CCRF-CEM leukemia) | TGI (CCRF-CEM leukemia) | GI50 (SF-295 CNS) | TGI (SF-295 CNS) | GI50 (SK-MEL-5 melanoma) | TGI (SK-MEL-5 melanoma) | GI50 (UACC-257 melanoma) | TGI (UACC-257 melanoma) | GI50 (COLO 205 colon) | TGI (COLO 205 colon) | GI50 (MALME-3M melanoma) | TGI (MALME-3M melanoma) | GI50 (HCC-2998 colon) | TGI (HCC-2998 colon) | GI50 (MOLT-4 leukemia) | TGI (MOLT-4 leukemia) | GI50 (SK-MEL-2 melanoma) | TGI (SK-MEL-2 melanoma) | GI50 (A549 NSCLC) | TGI (A549 NSCLC) |
| --- | --- | --- | --- | --- | --- | --- | --- | --- | --- | --- | --- | --- | --- | --- | --- | --- | --- | --- | --- | --- |
| CCOc1ccc(NC(=O)Nc2cc(C(C)C)ccc2C)cc1 | > 25.5 µM | > 100 µM | 7.45 µM | 25.4 µM | > 51.9 µM | > 100 µM | 8.83 µM | 44.9 µM | 15.3 µM | > 100 µM | 3.74 µM | 18.2 µM | 11 µM | > 92.2 µM | 9.57 µM | > 100 µM | 18 µM | 55.6 µM | 4.56 µM | 17.6 µM |
| O=C(O)CSc1n[nH]c(/C=C/c2ccccc2)n1 | – | > 100 µM | – | > 100 µM | – | > 100 µM | – | > 100 µM | – | > 100 µM | – | > 100 µM | – | > 100 µM | – | > 100 µM | – | > 100 µM | – | > 100 µM |
| COC(=O)N1[C@H]2Cc3c(OC)c(C)c(OC)c(OC)c3[C@@H]1/C(=C\c1cc(OC)c(OC)c(C)c1OC)N(Cc1ccccc1)C2=O | – | > 100 µM | – | > 100 µM | – | 53.8 µM | – | > 100 µM | – | 32 µM | – | 88.7 µM | – | > 100 µM | – | 75.2 µM | – | > 100 µM | – | > 100 µM |
| Cc1cc(N(CCCl)CCCl)ccc1C=Nc1cccnc1 | 6.75 µM | > 100 µM | 8.68 µM | > 95.7 µM | 14.6 µM | 41.7 µM | 3.7 µM | 23.2 µM | 15.1 µM | > 70.8 µM | 22.4 µM | > 100 µM | 16.8 µM | 32 µM | 2.05 µM | > 80.9 µM | 7.57 µM | > 50.1 µM | 14.3 µM | > 100 µM |
| O=C1CCC2(c3ccc(F)cc3)Nc3ccccc3N12 (centres undefined) | – | > 100 µM | – | > 100 µM | – | > 100 µM | – | > 100 µM | – | > 100 µM | – | > 100 µM | – | > 100 µM | – | > 100 µM | – | > 100 µM | – | > 100 µM |
| COc1ccccc1-c1cc2c3c(nc4ccccc42)C(=O)c2cccnc2-c3n1 | 4.94 µM | > 100 µM | 17.4 µM | 50.8 µM | 12.5 µM | 25.4 µM | 7.22 µM | 22.8 µM | 20.9 µM | 55.1 µM | 15.4 µM | 28.7 µM | 14.8 µM | 30.6 µM | > 42.6 µM | > 100 µM | 17.5 µM | 47.8 µM | 10 µM | 24 µM |
| O=C(Cn1ccnc1[N+](=O)[O-])N(CCO)CCO | > 580 µM | > 580 µM | > 185 µM | > 753 µM | > 1250 µM | > 1250 µM | > 1250 µM | > 1250 µM | > 250 µM | > 1250 µM | > 1250 µM | 224 µM and > 1250 µM | – | > 250 µM | > 1250 µM | > 1250 µM | > 1250 µM | 250 µM and > 1250 µM | > 1250 µM | > 1250 µM |
| c1ccc2c(c1)O[As](O[As]1Oc3ccccc3O1)O2 | 0.434 µM | 10.8 µM | 6.48 µM | 22.9 µM | 1.55 µM | 3.69 µM | 2.07 µM | 9.88 µM | 5.42 µM | 20.2 µM | 2.32 µM | 5.21 µM | 4.96 µM | 18.4 µM | 2.45 µM | 7.21 µM | 2.76 µM | 8.61 µM | 12 µM | 47.8 µM |
| Cc1c(Cl)ccc2c1NC(=O)C2(O)CC(=O)c1ccc(Cl)cc1Cl (centres undefined) | – | 22.4 µM | – | > 50 µM | – | > 50 µM | – | > 50 µM | – | > 50 µM | – | > 50 µM | – | > 50 µM | – | > 50 µM | – | > 50 µM | – | > 50 µM |
| C=CC1CC12C(=O)C1OC2(C)C2C(=O)c3ccccc3C(=O)C12 (centres undefined) | 39.2 µM | > 93.9 µM | 23.6 µM | 59.8 µM | 18.7 µM | 54.7 µM | > 45.9 µM | > 81.7 µM | > 100 µM | > 100 µM | 21.3 µM | 59.1 µM | > 100 µM | > 100 µM | 1.54 µM | 11.1 µM | > 86 µM | > 100 µM | > 60 µM | > 100 µM |
| CC(C)(C)c1nc2c(o1)C(=Nc1ccccc1)c1ccccc1C2=O | – | > 100 µM | – | 10.2 µM | – | 2.97 µM | – | 4.45 µM | – | 63 µM | – | 3.01 µM | – | 42.6 µM | – | > 100 µM | – | 6.99 µM | – | 23.5 µM |
| CCc1nc2c(O)ccc(O)c2nc1C | – | > 22.3 µM | – | 34.2 µM | – | 31.2 µM | – | 31.4 µM | – | 7.26 µM | – | 29.3 µM | – | > 54.9 µM | – | > 39.5 µM | – | 32.2 µM | – | 44.5 µM |
| CC(NC(=O)c1ccccc1)C(=O)N(Cc1ccccc1)Cc1ccccc1 (centres undefined) | – | 47.1 µM | – | 75 µM | – | 44.9 µM | – | > 100 µM | – | 40.8 µM | – | 53.7 µM | – | > 100 µM | – | 35.6 µM | – | 56.3 µM | – | > 100 µM |
| COc1cc(OC)c(-c2cc(=O)c3c(OC)c(OC)c(OC)c(OC)c3o2)cc1OC | – | > 100 µM | – | > 100 µM | – | > 100 µM | – | > 100 µM | – | > 100 µM | – | > 100 µM | – | > 100 µM | – | > 100 µM | – | > 100 µM | – | > 100 µM |
| Cc1nc2sc(C(=O)Nc3cccc4ccccc34)c(N)c2cc1C(C)O (centres undefined) | 0.21 µM | > 50 µM | 0.171 µM | > 50 µM | 0.185 µM | 5.81 µM | > 50 µM | > 50 µM | 0.234 µM | 7.64 µM | 0.265 µM | > 50 µM | 0.647 µM | > 50 µM | 0.227 µM | > 50 µM | 0.219 µM | > 50 µM | 0.345 µM | > 50 µM |
| COC(=O)c1cnc2nc(N3CCOCC3)[nH]n2c1=O | – | > 100 µM | – | > 100 µM | – | > 100 µM | – | > 100 µM | – | > 100 µM | – | > 100 µM | – | > 100 µM | – | > 100 µM | – | > 100 µM | – | > 100 µM |
